Assay results reported in the supplement of paper PMC10307832.

Columns and labels:
Test in all cases: relative viability (nuclei count vs DMSO), 5 days (fraction); higher = more cells survive
XMD8-85 + Bortezomib = compound: CN1CCN(CC1)C2=CC(=C(C=C2)NC3=NC=C4C(=N3)N(C5=CC=CC=C5C(=O)N4C)C)OC [XMD8-85] + CC(C)C[C@H](NC(=O)[C@H](Cc1ccccc1)NC(=O)c1cnccn1)B(O)O [Bortezomib] (partner 0.002 µM)
In short: (§1)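 Values are medians from duplicate plates. Each reflects relative viability, defined as the nuclei count of treated wells over that of vehicle wells. Lung cancer cell lines in 1536-well plates were pin-tool dosed one day after seeding with one drug alone or with a fixed anchor-drug dose plus five library-drug doses (not always all listed) in √10 steps, then fixed, stained and imaged at 4× after 5 days.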

XMD8-85 + Luminespib = compound: CN1CCN(CC1)C2=CC(=C(C=C2)NC3=NC=C4C(=N3)N(C5=CC=CC=C5C(=O)N4C)C)OC [XMD8-85] + CCNC(=O)c1noc(-c2cc(C(C)C)c(O)cc2O)c1-c1ccc(CN2CCOCC2)cc1 [Luminespib] (partner 0.01 µM)
In short: as §1

XMD8-85 + Phenformin = compound: CN1CCN(CC1)C2=CC(=C(C=C2)NC3=NC=C4C(=N3)N(C5=CC=CC=C5C(=O)N4C)C)OC [XMD8-85] + N=C(N)NC(=N)NCCc1ccccc1 [Phenformin] (partner 250 µM)
In short: as §1

4EGI-1 + Palbociclib = compound: O=C(O)C(Cc1ccccc1[N+](=O)[O-])=NNc1nc(-c2ccc(Cl)c(Cl)c2)cs1 (mixture of isomers) [4EGI-1] + CC(=O)c1c(C)c2cnc(Nc3ccc(N4CCNCC4)cn3)nc2n(C2CCCC2)c1=O [Palbociclib] (partner 0.5 µM)
In short: as §1

4EGI-1 + Dasatinib = compound: O=C(O)C(Cc1ccccc1[N+](=O)[O-])=NNc1nc(-c2ccc(Cl)c(Cl)c2)cs1 (mixture of isomers) [4EGI-1] + Cc1nc(Nc2ncc(C(=O)Nc3c(C)cccc3Cl)s2)cc(N2CCN(CCO)CC2)n1 [Dasatinib] (partner 0.075 µM)
In short: as §1

NCI-H1792
relative viability (XMD8-85 + Bortezomib; first compound 0.08 µM): 0.985 | relative viability (XMD8-85 + Bortezomib; first compound 0.253 µM): 0.776 | relative viability (XMD8-85 + Bortezomib; first compound 2.53 µM): 0.929 | relative viability (XMD8-85 + Bortezomib; first compound 8 µM): 0.838 | relative viability (XMD8-85 + Luminespib; first compound 0.253 µM): 0.504 | relative viability (XMD8-85 + Luminespib; first compound 2.53 µM): 0.371 | relative viability (XMD8-85 + Luminespib; first compound 8 µM): 0.35 | relative viability (XMD8-85 + Phenformin; first compound 0.253 µM): 0.268 | relative viability (XMD8-85 + Phenformin; first compound 2.53 µM): 0.257 | relative viability (XMD8-85 + Phenformin; first compound 8 µM): 0.486 | relative viability (4EGI-1 + Palbociclib; first compound 0.5 µM): 0.75 | relative viability (4EGI-1 + Palbociclib; first compound 1.581 µM): 0.695 | relative viability (4EGI-1 + Palbociclib; first compound 5 µM): 0.723 | relative viability (4EGI-1 + Palbociclib; first compound 15.81 µM): 0.575 | relative viability (4EGI-1 + Palbociclib; first compound 50 µM): 0.646 | relative viability (4EGI-1 + Dasatinib; first compound 0.5 µM): 1.03 | relative viability (4EGI-1 + Dasatinib; first compound 1.581 µM): 0.797 | relative viability (4EGI-1 + Dasatinib; first compound 5 µM): 0.74 | relative viability (4EGI-1 + Dasatinib; first compound 15.81 µM): 0.712 | relative viability (4EGI-1 + Dasatinib; first compound 50 µM): 0.671
